From patent US10125101B2, “Indanylaminopyridylcyclopropanecarboxylic acids, pharmaceutical compositions and uses thereof” (Boehringer Ingelheim International GmbH, priority 2016, dated 2018) come the findings set out here.

Read-outs that look alike come from different tables or passages of the source. A value given as a limit tells only on which side of the number the result lay.

Data set [1] addresses human GPR40 receptor (Homo sapiens (Human), UniProt O14842). The data set is described as follows: IP1 accumulation measurements using the IPOne assay system. The format is cell-based. On the procedure: IP1 accumulation measurements using the IPOne assay system—1321N1 cells stably expressing human GPR40 receptor (Euroscreen, Belgium) are seeded 24 h before the assay in white 384-well plates in culture medium containing 10% FCS, 1% Na-Pyruvate and 400 μg/mL G418. IP1 is assayed according to the manufacturer's description (Cisbio Bioassays, France). In brief, the assay is started by substitution of the culture medium by stimulation buffer (Hepes 10 mM, CaCl2 1 mM, MgCl2 0.5 mM, KCl 4.2 mM, NaCl 146 mM, glucose 5.5 mM and LiCl 50 mM, pH 7.4). Cells are stimulated for 1 h at 37° C., 5% CO2 by addition of the compounds that are diluted in stimulation buffer containing LiCl. Assays are stopped by adding HTRF-conjugates (IP1-d2 and Anti-IP1 cryptate Tb) and lysis buffer, provided by the manufacturer. After an incubation time of 1 h at room temperature plates are measured using an EnVision™, Perkin Elmer. The obtained fluorescence ratios at 665/615 […] are then used to calculate the pEC50 values using Assay Explorer 3.3 Software (Accelrys, Inc.) by interpolation using an IP1 reference curve and subsequent sigmoidal curve fitting allowing for a variable hill slope.

Data set [2] is described as follows: Aqueous solubility. The format is physicochemical. As to conditions: buffer pH 2.2, 24 h shaking, 2.5% DMSO. On the procedure: Starting from a 10 mM DMSO stock solution aliquots are diluted with acetonitrile/water (1/1) or buffer, respectively. After 24 h of shaking, the solutions are filtrated and analyzed by LC-UV. The amount dissolved in buffer is compared to the amount in the acetonitrile solution.

The target of data set [3] is cytochrome P450 2C8-isoenzyme (Homo sapiens (Human), UniProt P10632). Nature of the data set: Inhibition of CYP-2C8 (amodiaquine deethylation, human liver microsomes). The format is in vitro ADME. The following applies: amodiaquine 1 μM, 37° C. Here is the method:
(§1) All assays are carried out on a robotic system in 96 well plates. The final incubation volume contains TRIS buffer (0.1 M), MgCl2 (5 mM), human liver microsomes (0.05 mg/mL), amodiaquine (1 μM) and the test compound at five different concentrations or no compound (high control) in duplicate (e.g. highest concentration 10-50 μM with subsequent serial 1:4 dilutions). Following a short preincubation period, reactions are started with the cofactor (NADPH, 1 mM) and stopped by cooling the incubation down to 8° C. and subsequently by addition of one volume of acetonitrile. An internal standard solution—the stable isotope d5-desethylamodiaquine—is added after quenching of incubations. Peak area analyte (=metabolite formed) and internal standard is determined by LC-MS/MS. The resulting peak area ratio analyte to internal standard in these incubations is compared to a control activity containing no test compound. Within each of the assay runs, the IC50 of a positive control inhibitor (Montelukast) is determined.
On the technique in general: Microsomes from liver hold many membrane-bound enzymes, among them those of drug oxidation.

In data set [4] the target is cytochrome P450 2C9-isoenzyme (Homo sapiens (Human), UniProt P11712). The data set is described as follows: Inhibition of CYP-2C9 (diclofenac hydroxylation, human liver microsomes). The format is in vitro ADME. The following applies: diclofenac 10 μM, 37° C. Here is the method: as §1, with “(0.1” for “(0.05”, “diclofenac (10” for “amodiaquine (1”, “(e.g.,” for “(e.g.”, “^13C6-hydroxydiclofenac—is” for “d5-desethylamodiaquine—is”, “(sulfaphenazole)” for “(Montelukast)”

Where [5] appears, read: 1321N1 cells stably expressing human GPR40, 1 h stimulation, read-out: EC50.

Sequence of human GPR40 receptor (O14842 whole entry): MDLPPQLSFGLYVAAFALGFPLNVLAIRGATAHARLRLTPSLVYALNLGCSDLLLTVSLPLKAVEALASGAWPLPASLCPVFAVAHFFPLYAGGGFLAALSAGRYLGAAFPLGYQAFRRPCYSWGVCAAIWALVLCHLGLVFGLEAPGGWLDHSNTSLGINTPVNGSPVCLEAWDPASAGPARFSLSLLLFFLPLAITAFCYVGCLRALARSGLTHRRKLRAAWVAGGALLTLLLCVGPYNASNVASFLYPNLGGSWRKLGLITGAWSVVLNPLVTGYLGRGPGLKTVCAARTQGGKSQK
Sequence of cytochrome P450 2C8-isoenzyme (P10632 whole entry): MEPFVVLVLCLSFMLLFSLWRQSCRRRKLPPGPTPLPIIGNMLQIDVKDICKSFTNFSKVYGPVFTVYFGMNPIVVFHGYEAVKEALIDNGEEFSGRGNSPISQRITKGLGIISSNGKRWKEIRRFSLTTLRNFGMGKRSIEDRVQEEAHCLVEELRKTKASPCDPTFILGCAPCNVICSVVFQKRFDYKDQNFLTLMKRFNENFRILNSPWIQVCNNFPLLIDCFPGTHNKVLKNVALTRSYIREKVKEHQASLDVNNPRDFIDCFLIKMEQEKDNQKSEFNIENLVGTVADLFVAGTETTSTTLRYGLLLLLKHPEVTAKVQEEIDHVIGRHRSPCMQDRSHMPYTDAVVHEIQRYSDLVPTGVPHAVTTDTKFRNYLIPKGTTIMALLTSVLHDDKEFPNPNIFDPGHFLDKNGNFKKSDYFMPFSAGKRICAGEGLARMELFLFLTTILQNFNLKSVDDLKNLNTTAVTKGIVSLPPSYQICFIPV
Sequence of cytochrome P450 2C9-isoenzyme (P11712 whole entry): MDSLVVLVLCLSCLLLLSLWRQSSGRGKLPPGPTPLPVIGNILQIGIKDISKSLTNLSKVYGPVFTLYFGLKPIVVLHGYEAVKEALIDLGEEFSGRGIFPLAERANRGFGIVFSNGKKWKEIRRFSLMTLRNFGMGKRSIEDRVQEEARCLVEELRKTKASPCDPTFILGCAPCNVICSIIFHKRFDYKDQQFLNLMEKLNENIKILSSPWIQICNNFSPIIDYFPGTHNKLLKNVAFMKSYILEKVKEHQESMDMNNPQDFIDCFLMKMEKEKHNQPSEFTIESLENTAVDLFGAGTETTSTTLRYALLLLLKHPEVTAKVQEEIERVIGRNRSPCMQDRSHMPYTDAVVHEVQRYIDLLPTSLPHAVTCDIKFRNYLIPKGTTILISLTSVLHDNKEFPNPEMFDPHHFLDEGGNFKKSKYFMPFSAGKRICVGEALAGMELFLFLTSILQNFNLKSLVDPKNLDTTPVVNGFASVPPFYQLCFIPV

Turning to `Cc1cc(OCC(=O)O)cc(C)c1-c1ccc(F)c2c1CC[C@H]2Nc1ccc([C@H]2C[C@@H]2C(=O)O)nc1` [Example 16], the EC50 in data set [1] (setting [5]) stood at 0.924 µM. Further, the Solubility (in general, how much of the substance goes into solution per volume) at pH value 2.2 in data set [2] is 96 μg/mL. Moreover, the IC50 in data set [3] and in data set [4] was more than 50 µM throughout.
Consider `Cc1cc(OCC(C)(C)C#N)cc(C)c1-c1ccc(F)c2c1CC[C@H]2Nc1ccc([C@H]2C[C@@H]2C(=O)O)nc1` [Example 17], for which the EC50 in data set [1] (setting [5]) was 0.01 µM. Moreover, the “Solubility at pH value 2.2” value in data set [2] amounted to 64 μg/mL. Moreover, the IC50 (as a rule, the concentration that gives 50% inhibition) in data set [3] worked out at 19 µM; in data set [4], 36 µM.
Taken in the same sequence, the figures for `Cc1cc(-c2ccn(C)c(=O)n2)cc(C)c1-c1ccc(F)c2c1CC[C@H]2Nc1ccc([C@H]2C[C@@H]2C(=O)O)nc1` [Example 18] were 0.005 µM, more than 130 μg/mL, 21 µM and more than 50 µM.
Take `Cc1cc(-c2ccnn2C)cc(C)c1-c1ccc(F)c2c1CC[C@H]2Nc1ccc([C@H]2C[C@@H]2C(=O)O)nc1` [Example 19]: the EC50 in data set [1] (setting [5]) turned out to be 0.012 µM. Besides, the “Solubility at pH value 2.2” value in data set [2] is 95 μg/mL. Also, the IC50 in data set [3] came to 7 µM; in data set [4], 26 µM.
Taken in the same sequence, the figures for `Cc1cc(-c2nnn(CC(C)(C)O)n2)cc(C)c1-c1ccc(F)c2c1CC[C@H]2Nc1ccc([C@H]2C[C@@H]2C(=O)O)nc1` [Example 20] were 0.002 µM, 113 μg/mL, 34 µM and more than 50 µM.
Taken in the same sequence, the figures for `Cc1cnc(-c2cc(C)c(-c3ccc(F)c4c3CC[C@H]4Nc3ccc([C@H]4C[C@@H]4C(=O)O)nc3)c(C)c2)nc1` [Example 21] were 0.002 µM, 91 μg/mL, 15 µM and 36 µM.
Taken in the same sequence, the figures for `COc1cc(-c2cc(C)c(-c3ccc(F)c4c3CC[C@H]4Nc3ccc([C@H]4C[C@@H]4C(=O)O)nc3)c(C)c2)ccn1` [Example 22] were 0.005 µM, 106 μg/mL, 8 µM and 19 µM.
As to `Cc1cc(C(=O)O)cc(C)c1-c1ccc(F)c2c1CC[C@H]2Nc1ccc([C@H]2C[C@@H]2C(=O)O)nc1` [Example 23], in data set [1] (setting [5]), the EC50 came to 0.668 µM. The “Solubility at pH value 2.2” value in data set [2] stood at 97 μg/mL. Moreover, the values for the IC50 in data set [3] and in data set [4] were 43 µM and more than 50 µM, respectively.
For `O=C(O)[C@H]1C[C@@H]1c1ccc(N[C@@H]2CCc3c(-c4c(Cl)cccc4Cl)ccc(F)c32)cn1` [Example 24], in that order: 0.004 µM, more than 122 μg/mL, 11 µM and 22 µM.
For `Cc1cc(OCC2CCOCC2)cc(C)c1-c1ccc(F)c2c1CC[C@H]2Nc1ccc([C@H]2C[C@@H]2C(=O)O)nc1` [Example 26], in that order: 0.006 µM, 90 μg/mL, 14 µM and 16 µM.
Taken in the same sequence, the figures for `CNC(=O)c1cc(C)c(-c2ccc(F)c3c2CC[C@H]3Nc2ccc([C@H]3C[C@@H]3C(=O)O)nc2)c(C)c1` [Example 27] were 0.148 µM, 112 μg/mL, more than 50 µM and more than 50 µM.
As for `Cc1cc(-c2ccn(C)c(=O)c2)cc(C)c1-c1ccc(F)c2c1CC[C@H]2Nc1ccc([C@H]2C[C@@H]2C(=O)O)nc1` [Example 29], in data set [1] (setting [5]), the EC50 came to 0.004 µM. Moreover, the “Solubility at pH value 2.2” value in data set [2] is given as 117 μg/mL. The IC50 in data set [3] is 14 µM; in data set [4], more than 50 µM.
For `O=C(O)[C@H]1C[C@@H]1c1ccc(N[C@@H]2CCc3c(-c4ccccc4C(F)(F)F)ccc(F)c32)cn1` [Example 31], in that order: 0.027 µM, 87 μg/mL, 15 µM and 31 µM.
On to `Cc1cc(OCC2CCOC2)cc(C)c1-c1ccc(F)c2c1CC[C@H]2Nc1ccc([C@H]2C[C@@H]2C(=O)O)nc1` (stereo partly shown) [Example 32], for which the EC50 in data set [1] (setting [5]) was determined as 0.007 µM. Moreover, the “Solubility at pH value 2.2” value in data set [2] worked out at 123 μg/mL. In addition, the IC50 in data set [3] was 26 µM; in data set [4], more than 50 µM.
`Cc1cc(OCC(C)(C)O)cc(C)c1-c1ccc(F)c2c1CC[C@H]2Nc1ccc([C@H]2C[C@@H]2C(=O)O)nc1` [Example 34]: the EC50 in data set [1] (setting [5]) amounted to 0.01 µM. The “Solubility at pH value 2.2” value in data set [2] is 111 μg/mL. Further, the half-maximal inhibitory concentration (IC50) is 45 µM in data set [3] and more than 50 µM in data set [4].
Taken in the same sequence, the figures for `Cc1cc(OC2CCOCC2)cc(C)c1-c1ccc(F)c2c1CC[C@H]2Nc1ccc([C@H]2C[C@@H]2C(=O)O)nc1` [Example 35] were 0.011 µM, 106 μg/mL, 31 µM and more than 50 µM.
As for `CC(C)c1ccccc1-c1ccc(F)c2c1CC[C@H]2Nc1ccc([C@H]2C[C@@H]2C(=O)O)nc1` [Example 36], the EC50 in data set [1] (setting [5]) was 0.015 µM. Also, the “Solubility at pH value 2.2” value in data set [2] amounted to 91 μg/mL. Moreover, the half-inhibitory concentration (IC50) in data set [3] was found to be 10 µM; in data set [4], 22 µM.
Take `Cc1cc(OCC2(O)CCOCC2)cc(C)c1-c1ccc(F)c2c1CC[C@H]2Nc1ccc([C@H]2C[C@@H]2C(=O)O)nc1` [Example 37]: the EC50 in data set [1] (setting [5]) worked out at 0.019 µM. Further, the “Solubility at pH value 2.2” value in data set [2] is 119 μg/mL. The IC50 is 41 µM in data set [3] and more than 50 µM in data set [4].
For `Cc1cc(OCC2(O)CCS(=O)(=O)CC2)cc(C)c1-c1ccc(F)c2c1CC[C@H]2Nc1ccc([C@H]2C[C@@H]2C(=O)O)nc1` [Example 38], in that order: 0.018 µM, more than 154 μg/mL, more than 50 µM and more than 50 µM.
For `Cc1cc(C(=O)N(C)C)cc(C)c1-c1ccc(F)c2c1CC[C@H]2Nc1ccc([C@H]2C[C@@H]2C(=O)O)nc1` [Example 39], in that order: 0.148 µM, 118 μg/mL, more than 50 µM and more than 50 µM.
As to `Cc1cc(-c2nnn(C)n2)cc(C)c1-c1ccc(F)c2c1CC[C@H]2Oc1ccc([C@H]2C[C@@H]2C(=O)O)cc1` [Example 45 in WO 2013/178575, reference compound], the EC50 in data set [1] (head-to-head compilation, given as IC50, values equal the EC50 of Table 2, read-out: GPR40: IC50) came out at 0.008 µM. The solubility (usually how much of the substance goes into solution per volume) at 24 h in data set [2] (aqueous buffer, kinetic from dmso stock) is less than 1 µg/mL. The “Solubility at pH value 2.2” value in data set [2] was less than 1 μg/mL. Moreover, the IC50 in data set [3] was determined as 5 µM; in data set [4], 10 µM.
